From ChEMBL document CHEMBL1140941 (J Med Chem, 2009)
Calls of active or inactive are those of the source. No cut-off for these calls is given here.

Legend:
[1] = target: T1, Estrogen receptor (Homo sapiens) (UniProt P03372); assay: Antagonist activity at gal-ERalpha expressed in african green monkey CV1 cells co-expressing MH100 at 10 uM by luciferase reporter gene assay; assay type: functional, cell-based; settings: CV-1
T1 sequence (whole entry): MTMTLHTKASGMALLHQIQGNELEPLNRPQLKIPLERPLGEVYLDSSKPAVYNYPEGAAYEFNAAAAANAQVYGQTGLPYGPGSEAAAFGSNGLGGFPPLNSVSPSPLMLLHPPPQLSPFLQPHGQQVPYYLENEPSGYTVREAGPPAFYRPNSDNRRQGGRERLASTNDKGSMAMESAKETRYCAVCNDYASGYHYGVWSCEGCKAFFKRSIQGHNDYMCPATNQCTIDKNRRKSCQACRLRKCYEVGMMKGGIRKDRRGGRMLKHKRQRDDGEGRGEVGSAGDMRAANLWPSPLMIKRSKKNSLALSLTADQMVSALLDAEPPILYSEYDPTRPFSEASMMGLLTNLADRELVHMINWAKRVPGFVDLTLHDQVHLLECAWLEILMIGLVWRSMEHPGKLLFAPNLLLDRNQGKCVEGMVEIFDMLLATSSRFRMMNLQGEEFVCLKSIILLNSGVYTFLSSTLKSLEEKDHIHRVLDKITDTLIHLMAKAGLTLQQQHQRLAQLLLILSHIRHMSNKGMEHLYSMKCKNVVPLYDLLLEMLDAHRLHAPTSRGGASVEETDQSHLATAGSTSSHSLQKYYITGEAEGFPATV

[2] = target: T2, Mineralocorticoid receptor (Homo sapiens) (UniProt P08235); assay: Agonist activity at gal-MR expressed in african green monkey CV1 cells co-expressing MH100 by luciferase reporter gene assay; assay type: functional, cell-based; settings: CV-1
T2 sequence (whole entry): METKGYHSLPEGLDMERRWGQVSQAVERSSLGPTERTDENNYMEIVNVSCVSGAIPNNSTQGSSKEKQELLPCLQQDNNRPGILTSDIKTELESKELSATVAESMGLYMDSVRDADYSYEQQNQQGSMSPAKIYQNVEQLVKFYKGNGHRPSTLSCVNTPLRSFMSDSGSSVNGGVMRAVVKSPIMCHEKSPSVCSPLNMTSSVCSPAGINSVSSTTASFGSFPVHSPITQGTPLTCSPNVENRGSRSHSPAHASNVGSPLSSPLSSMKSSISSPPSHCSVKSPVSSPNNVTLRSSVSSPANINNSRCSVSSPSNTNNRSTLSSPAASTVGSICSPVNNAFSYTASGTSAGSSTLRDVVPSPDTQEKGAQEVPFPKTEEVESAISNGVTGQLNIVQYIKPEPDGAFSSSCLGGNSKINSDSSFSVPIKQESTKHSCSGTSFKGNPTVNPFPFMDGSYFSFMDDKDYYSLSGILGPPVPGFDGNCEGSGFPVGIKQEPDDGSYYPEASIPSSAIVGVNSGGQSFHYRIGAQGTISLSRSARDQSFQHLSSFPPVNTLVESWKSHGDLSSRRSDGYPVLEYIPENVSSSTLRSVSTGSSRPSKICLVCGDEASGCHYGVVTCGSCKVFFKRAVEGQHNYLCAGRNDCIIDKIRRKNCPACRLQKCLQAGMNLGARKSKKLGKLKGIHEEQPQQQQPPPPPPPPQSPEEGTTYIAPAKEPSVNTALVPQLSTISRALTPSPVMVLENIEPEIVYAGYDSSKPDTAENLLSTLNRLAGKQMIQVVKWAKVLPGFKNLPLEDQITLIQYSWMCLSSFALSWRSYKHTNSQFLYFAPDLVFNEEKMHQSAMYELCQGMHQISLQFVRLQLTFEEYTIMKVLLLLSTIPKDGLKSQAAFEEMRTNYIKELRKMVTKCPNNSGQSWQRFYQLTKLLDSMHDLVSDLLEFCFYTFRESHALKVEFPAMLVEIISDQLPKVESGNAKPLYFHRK

[3] = Volume of distribution in CD rat at 3 mg/kg, iv; assay type: ADME, organism-based; design: dose 3 mg/kg, route intravenous; settings: in vivo, read-out: Vdss
[4] = target: T3, Progesterone receptor (Homo sapiens) (UniProt P06401); assay: Antagonist activity at gal-PR expressed in african green monkey CV1 cells co-expressing MH100 at 10 uM by luciferase reporter gene assay; assay type: functional, cell-based; settings: CV-1
T3 sequence (whole entry): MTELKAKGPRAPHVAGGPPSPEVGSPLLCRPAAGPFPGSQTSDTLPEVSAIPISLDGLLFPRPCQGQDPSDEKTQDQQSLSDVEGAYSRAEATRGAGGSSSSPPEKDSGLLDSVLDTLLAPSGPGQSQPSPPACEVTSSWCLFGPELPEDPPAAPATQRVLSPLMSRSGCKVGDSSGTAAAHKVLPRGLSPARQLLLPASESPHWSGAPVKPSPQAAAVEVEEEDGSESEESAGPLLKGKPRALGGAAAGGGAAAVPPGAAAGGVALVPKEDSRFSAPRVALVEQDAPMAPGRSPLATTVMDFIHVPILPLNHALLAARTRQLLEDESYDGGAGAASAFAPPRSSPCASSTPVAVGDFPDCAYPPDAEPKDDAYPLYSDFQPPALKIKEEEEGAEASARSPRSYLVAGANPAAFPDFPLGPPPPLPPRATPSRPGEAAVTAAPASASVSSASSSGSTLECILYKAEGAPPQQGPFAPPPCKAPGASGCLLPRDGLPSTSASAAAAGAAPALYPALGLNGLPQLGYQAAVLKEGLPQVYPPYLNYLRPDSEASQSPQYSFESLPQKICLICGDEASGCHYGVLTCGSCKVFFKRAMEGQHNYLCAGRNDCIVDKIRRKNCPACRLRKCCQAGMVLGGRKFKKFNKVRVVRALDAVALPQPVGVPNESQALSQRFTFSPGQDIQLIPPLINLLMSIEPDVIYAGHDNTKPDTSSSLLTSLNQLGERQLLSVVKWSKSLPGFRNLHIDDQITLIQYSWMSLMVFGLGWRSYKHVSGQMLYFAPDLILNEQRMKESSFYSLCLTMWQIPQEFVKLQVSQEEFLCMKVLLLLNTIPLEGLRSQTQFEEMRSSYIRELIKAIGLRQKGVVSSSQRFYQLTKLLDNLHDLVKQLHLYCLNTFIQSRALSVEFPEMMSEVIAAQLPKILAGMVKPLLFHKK

[5] = target: Retinoic acid receptor gamma (Homo sapiens) (UniProt P13631); assay: Agonist activity at gal-RARgamma expressed in african green monkey CV1 cells co-expressing MH100 by luciferase reporter gene assay; assay type: functional, cell-based; settings: CV-1
Retinoic acid receptor gamma (Homo sapiens), sequence (P13631 whole entry): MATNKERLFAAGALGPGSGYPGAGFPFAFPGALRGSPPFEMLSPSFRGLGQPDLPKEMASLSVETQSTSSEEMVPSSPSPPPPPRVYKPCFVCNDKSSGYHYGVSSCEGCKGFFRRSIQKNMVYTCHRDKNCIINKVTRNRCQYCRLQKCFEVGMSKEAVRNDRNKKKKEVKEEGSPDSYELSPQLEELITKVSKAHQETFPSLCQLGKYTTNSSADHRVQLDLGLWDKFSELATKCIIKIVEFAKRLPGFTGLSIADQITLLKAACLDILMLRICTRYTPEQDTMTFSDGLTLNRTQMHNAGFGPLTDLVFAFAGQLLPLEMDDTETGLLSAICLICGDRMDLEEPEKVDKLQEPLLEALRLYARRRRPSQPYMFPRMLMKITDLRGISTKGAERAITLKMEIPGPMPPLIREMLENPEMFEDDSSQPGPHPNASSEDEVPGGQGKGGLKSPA

[6] = tested on: Mus musculus; assay: Inhibition of preatherosclerotic lesion in LDLR knockout mouse model at 1 mg/kg, po administered for 6 weeks by en-face analysis; assay type: functional; design: scale not given: the % may be the effect or the level left
[7] = target: Vitamin D3 receptor (Homo sapiens) (UniProt P11473); assay: Agonist activity at VP16-VDR expressed in african green monkey CV1 cells co-expressing MH100 up to 10 uM by luciferase reporter gene assay relative to control; assay type: functional, cell-based; settings: CV-1
Vitamin D3 receptor (Homo sapiens), sequence (P11473 whole entry): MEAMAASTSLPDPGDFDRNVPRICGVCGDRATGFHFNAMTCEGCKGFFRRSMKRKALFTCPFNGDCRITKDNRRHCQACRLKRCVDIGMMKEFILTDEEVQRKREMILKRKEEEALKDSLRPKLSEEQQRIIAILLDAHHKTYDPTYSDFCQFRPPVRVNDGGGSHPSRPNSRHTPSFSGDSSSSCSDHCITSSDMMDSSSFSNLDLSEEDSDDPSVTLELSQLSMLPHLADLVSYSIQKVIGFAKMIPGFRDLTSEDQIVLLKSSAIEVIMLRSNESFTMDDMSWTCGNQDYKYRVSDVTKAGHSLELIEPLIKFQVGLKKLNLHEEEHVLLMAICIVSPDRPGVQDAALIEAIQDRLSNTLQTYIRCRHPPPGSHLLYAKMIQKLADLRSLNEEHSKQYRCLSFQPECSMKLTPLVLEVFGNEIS

[8] = target: Oxysterols receptor LXR-beta (Homo sapiens) (UniProt P55055); assay: Agonist activity at LXRbeta expressed in african green monkey CV1 cells co-expressing LXRE by luciferase reporter gene assay; assay type: functional, cell-based; settings: CV-1
Oxysterols receptor LXR-beta (Homo sapiens), sequence (P55055 whole entry): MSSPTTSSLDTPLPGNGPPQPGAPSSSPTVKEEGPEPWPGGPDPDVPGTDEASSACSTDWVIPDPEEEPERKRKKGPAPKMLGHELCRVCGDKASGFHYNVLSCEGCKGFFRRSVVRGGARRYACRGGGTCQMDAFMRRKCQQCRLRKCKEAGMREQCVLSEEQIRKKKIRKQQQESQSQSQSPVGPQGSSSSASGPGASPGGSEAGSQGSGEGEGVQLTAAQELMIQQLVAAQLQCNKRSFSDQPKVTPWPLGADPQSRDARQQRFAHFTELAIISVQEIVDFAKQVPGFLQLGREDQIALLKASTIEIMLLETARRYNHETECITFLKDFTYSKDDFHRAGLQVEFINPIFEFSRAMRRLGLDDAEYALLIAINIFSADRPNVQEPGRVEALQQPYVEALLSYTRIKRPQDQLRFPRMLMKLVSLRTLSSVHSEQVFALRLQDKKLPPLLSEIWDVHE

[9] = target: Nuclear receptor subfamily 1 group I member 2 (Homo sapiens, UniProt O75469); assay: Agonist activity at SXR expressed in african green monkey CV1 cells co-expressing MH100 by luciferase reporter gene assay; assay type: functional, cell-based; settings: cv-1
Nuclear receptor subfamily 1 group I member 2, sequence (O75469 whole entry): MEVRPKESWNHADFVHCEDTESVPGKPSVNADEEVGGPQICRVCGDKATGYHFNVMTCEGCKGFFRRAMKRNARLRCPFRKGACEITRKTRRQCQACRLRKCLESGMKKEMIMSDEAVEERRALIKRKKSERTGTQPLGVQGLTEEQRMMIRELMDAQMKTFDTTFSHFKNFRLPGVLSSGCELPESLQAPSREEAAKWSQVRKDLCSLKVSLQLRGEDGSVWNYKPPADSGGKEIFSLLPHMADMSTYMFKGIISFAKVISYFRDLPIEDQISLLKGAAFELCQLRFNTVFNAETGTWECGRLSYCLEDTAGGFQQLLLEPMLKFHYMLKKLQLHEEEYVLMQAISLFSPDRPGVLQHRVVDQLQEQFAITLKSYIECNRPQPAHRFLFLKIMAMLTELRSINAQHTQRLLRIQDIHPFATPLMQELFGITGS

With CC(C)OC(=O)C1=CN(C(=O)c2ccc(F)c(F)c2)CC(C)(C)c2c1[nH]c1ccccc21 [TUROFEXORATE ISOPROPYL] the inhibition [1] was 24%, the Activity [2] was “inactive” and the Vd [3] was 3.3 L/kg. For the same compound, the inhibition [4] was 14%, the Activity [5] was “inactive” and the Activity [6] was 18%. For the same compound, the Activity [7] was “inactive”, the Activity [8] was “inactive” and the Activity [9] was “Not Active”.
